Source: US8476197B2, “Aminopropenoates as fungicides” (priority 2009, dated 2013)
Like-named read-outs stand apart in the source and are kept apart here. Marks after values point to notes of the source that are not given here.

How the values were obtained:
[1] = system: Phaedon cochleariae; conditions: spray on Chinese cabbage leaf-disks, 500 g/ha, after 7 days
Description: • Solvent: 78.0 parts by weight of acetone • 1.5 parts by weight of dimethylformamide • Emulsifier: 0.5 parts by weight of alkylaryl polyglycolether
Chinese cabbage (Brassica pekinesis) leaf-disks are sprayed with a preparation of the active ingredient of the desired concentration. Once dry, the leaf disks are infested with mustard beetle larvae (Phaedon cochleariae). After 7 days mortality in % is determined. 100% means that all beetle larvae have been killed and 0% means that none of the beetle larvae have been killed.

[2] = system: Myzus persicae; conditions: spray on Chinese cabbage leaf-disks, 500 g/ha, after 6 days
Description: Chinese cabbage (Brassica pekinesis) leaf-disks infected with all instars of the green peach aphid (Myzus persicae), are sprayed with a preparation of the active ingredient at the desired concentration. After 6 days mortality in % is determined. 100% means that all aphids have been killed; 0% means that none of the aphids have been killed.

[3] = preparation examples, HPLC method ([a], [b] or [c]) not stated
[4] = system: Boophilus microplus; assay: Boophilus microplus test (injection); assay type: in vivo; conditions: injection into adult engorged female ticks, 20 μg/animal, after 7 days
Description: Boophilus microplus—Test Injection)
• Solvent: dimethyl sulfoxide
Five adult engorged female ticks (Boophilus microplus) are injected with 1 μl compound solution into the abdomen. Ticks are transferred into replica plates and incubated in a climate chamber for a period of time. Egg deposition of fertile eggs is monitored. […] 100% means that all eggs are infertile; 0% means that all eggs are fertile.

With CCOC(=O)C(C#N)=C(NC(C)c1nccs1)c1ncc(C(F)(F)F)cc1Cl (racemic) [Compound 40] as the molecule, how does the “activity (mortality)” value [1] read?
The value was 83%.

And the “Log P” value (pH 2.7)?
The value was 3.37^[a].

With CCOC(=O)C(C#N)=C(NC(C)C(=O)NC)c1ncc(C(F)(F)F)cc1Cl (stereo not shown) [Compound 600] as the molecule, how does the “activity (mortality)” value [2] read?
The value was 100%.

What about the “Log P” value (pH 2.7) of the same molecule?
Its value is 2.41^[a].

With CCOC(=O)C(C#N)=C(Cl)c1scc(C)c1Cl [ethyl 3-chloro-3-(3-chloro-4-methyl-2-thienyl)-2-cyanoacrylate] as the molecule, how does the chromatographic logP [3] read?
The chromatographic logP was 3.65.

What about the LogP [3] of the same molecule?
The LogP was 3.70.

With CCN/C(=C(/C#N)C(=O)OCC)c1cccnc1-c1ccc(Cl)cc1 [ethyl (2Z)-3-[2-(4-chlorophenyl)pyridin-3-yl]-2-cyano-3-(ethylamino)acrylate] as the molecule, how does the chromatographic logP [3] read?
Its chromatographic logP is 2.96.

With CC(N/C(=C(/C#N)C(=O)O)c1sccc1Br)c1nccs1 (stereo not shown) [(2Z)-3-(3-bromo-2-thienyl)-2-cyano-3-{[1-(1,3-thiazol-2-yl)ethyl]amino}acrylic acid] as the molecule, how does the chromatographic logP [3] read?
Its chromatographic logP is 1.23.

For N#CC=C(Cl)c1cccnc1Cl [3-chloro-3-(2-chloropyridin-3-yl)acrylonitrile], which chromatographic logP [3] is on record?
The chromatographic logP was 1.94.

And the LogP [3]?
The LogP was 2.03.

For CCNC(=S)/C(C#N)=C(\NC1CC1CC)c1cccnc1Cl (stereo not shown) [(2Z)-3-(2-chloropyridin-3-yl)-2-cyano-N-ethyl-3-[(2-ethylcyclopropyl)amino]-prop-2-enethioamide], which chromatographic logP [3] is on record?
Its chromatographic logP is 3.87.

For CC(C)NC(=O)C(C#N)=C(NC(C)C(C)C)c1cccnc1Cl (stereo not shown) [Compound 957], which “activity (mortality)” value [1] is on record?
Its value is 100%.

What about the “Log P” value (pH 2.3) of the same molecule?
Its value is 3.37.

What about the “Log P” value (pH 7.5) of the same molecule?
The value was 3.39.

With CNC(=O)C(C#N)=C(NC(C)C1CC1)c1cccnc1Cl (mixture of isomers) [Compound 1244] as the molecule, how does the “activity (mortality)” value [2] read?
The value was 100%.

For CCOC(=O)C(C#N)=C(NC(C)C(C)C)c1cccnc1-c1cncnc1 (stereo not shown) [Compound 1591], which “activity (mortality)” value [1] is on record?
The value was 100%.

And the “Log P” value (pH 7.5)?
Its value is 2.42.

For C#CC(C)(C)NC(=C(C#N)C(=O)OC)c1cccnc1Cl [Compound 1028], which “activity (mortality)” value [1] is on record?
The value was 83%.

What about the “Log P” value (pH 2.7) of the same molecule?
Its value is 2.23^[a].

With CCOC(=O)/C(C#N)=C(\NCCc1ncc(C(F)(F)F)cc1Cl)c1cccnc1Cl [ethyl (2Z)-3-(2-chloropyridin-3-yl)-3-({2-[3-chloro-5-(trifluoromethyl)pyridin-2-yl]ethyl}amino)-2-cyanoacrylate] as the molecule, how does the chromatographic logP [3] read?
Its chromatographic logP is 3.57.

For CC(C)NC(=O)/C(C#N)=C(\NC(C)c1nccs1)c1sccc1Br (stereo not shown), which chromatographic logP [3] is on record?
Its chromatographic logP is 3.11.

Which results are given for CCOC(=O)C(C#N)=C(NC(C)C(C)C)c1cccnc1-c1ccc(Cl)c(Cl)c1 (stereo not shown) [Compound 1475]?
activity (mortality) [1]: 100%; Log P (pH 2.3): 4.56^[c]; 4.56^[b]; Log P (pH 7.5): 4.56^[c]; 4.56^[b]

For CCC1CC1N/C(=C/C#N)c1cccnc1Cl (stereo not shown) [3-(2-chloropyridin-3-yl)-3-[(2-ethylcyclopropyl)amino]acrylonitrile], which chromatographic logP [3] is on record?
The chromatographic logP was 2.53.

Which chromatographic logP [3] does the source give for CCOC(=O)/C(C#N)=C(\N[C@H](C)C(=O)NC)c1scc(C)c1Cl [ethyl (2Z)-3-(3-chloro-4-methyl-2-thienyl)-2-cyano-3-{[(2R)-1-(methylamino)-1-oxopropan-2-yl]amino}acrylate] here?
Its chromatographic logP is 3.61.

Which chromatographic logP [3] does the source give for CC(N/C(=C(/C#N)C(=O)NC1CC1)c1cn(C)nc1C(F)F)c1nccs1 (stereo not shown) [(2Z)-2-cyano-N-cyclopropyl-3-[3-(difluoromethyl)-1-methyl-1H-pyrazol-4-yl]-3-{[1-(1,3-thiazol-2-yl)ethyl]amino}acrylamide] here?
The chromatographic logP was 2.04.

With CCOC(=O)C(C#N)=C(NC1CCCNC1=O)c1cccnc1Cl (racemic) [Compound 239] as the molecule, how does the “activity (mortality; 100% means all eggs infertile)” value [4] read?
The value was 100%.

What about the “Log P” value (pH 2.3) of the same molecule?
Its value is 1.67.

What about the “Log P” value (pH 7.5) of the same molecule?
Its value is 1.6.

What does the source list for CCOC(=O)C(C#N)=C(NC(C)c1nccs1)c1cccnc1SC (racemic) [Compound 62]?
activity (mortality) [2]: 100%; Log P (pH 7.5): 2.73

For CCOC(=O)/C(C#N)=C(\NC(C)c1ccc(Cl)nc1)c1cccnc1Cl (stereo not shown) [ethyl (2Z)-3-(2-chloropyridin-3-yl)-3-{[1-(6-chloropyridin-3-yl)ethyl]amino}-2-cyanoacrylate], which chromatographic logP [3] is on record?
Its chromatographic logP is 2.8.

With CCOC(=O)/C(C#N)=C(\NCC(c1ccccc1)C(C)C)c1cccnc1Cl (stereo not shown) [ethyl (2Z)-3-(2-chloropyridin-3-yl)-2-cyano-3-[(3-methyl-2-phenylbutyl)amino]acrylate] as the molecule, how does the chromatographic logP [3] read?
Its chromatographic logP is 4.21.

Which “activity (mortality)” value [2] does the source give for CSCC(C)NC(=C(C#N)C(=O)OC(C)C)c1cccnc1Cl (stereo not shown) [Compound 597] here?
Its value is 90%.

What about the “Log P” value (pH 7.5) of the same molecule?
The value was 3.03.

For COC(=O)C(C#N)=C(NC(C)C1CCCCC1)c1sc(C)nc1C(F)(F)F (stereo not shown) [Compound 874], which “Log P” value (pH 2.7) is on record?
Its value is 4.46^[a].

For CC(NC(=C(C#N)C(=O)NCC(F)(F)F)c1cccnc1Cl)c1nccs1 (stereo not shown) [Compound 324], which “Log P” value (pH 2.7) is on record?
The value was 2.44^[a].

Which “Log P” value (pH 7.5) does the source give for CCSCC(C)NC(=C(C#N)C(=O)OC)c1cccnc1Cl (stereo not shown) [Compound 577] here?
The value was 2.72.

Which “Log P” value (pH 2.7) does the source give for CCOC(=O)C(C#N)=C(Nc1ccccc1OC(C)C)c1sc(C)nc1C(F)(F)F [Compound 519] here?
The value was 4.36^[a].

Which “Log P” value (pH 2.7) does the source give for CC#CC(C)(C)NC(=C(C#N)C(=O)OCC)c1cn(C)nc1C(F)F [Compound 1043] here?
Its value is 2.9^[a].

With CCOC(=O)C(C#N)=C(NC(C)CC)c1nc(SC)ncc1Br (racemic) [Compound 841] as the molecule, how does the “Log P” value (pH 2.7) read?
The value was 3.89^[a].

Which “Log P” value (pH 2.7) does the source give for CCOC(=O)C(C#N)=C(NC(C)C(C)C)c1cnccc1C(F)(F)F (stereo not shown) [Compound 982] here?
The value was 3.5^[a].

Which “Log P” value (pH 2.7) does the source give for CCOC(=O)C(C#N)=C(NC(C)c1cccs1)c1cn(C)nc1C(F)F (stereo not shown) [Compound 213] here?
Its value is 3.02^[a].

Which “Log P” value (pH 2.7) does the source give for CCOC(=O)C(C#N)=C(NC(CC)CC)c1cn(C)nc1C(F)F [Compound 1338] here?
Its value is 3.15^[a].

Which “Log P” value (pH 2.3) does the source give for CON(C)C(=O)C(C#N)=C(NC(C)C(C)C)c1cccnc1Cl (stereo not shown) [Compound 1246] here?
Its value is 2.68.

What about the “Log P” value (pH 7.5) of the same molecule?
Its value is 2.67.

Which “Log P” value (pH 2.7) does the source give for CCOC(=O)C(C#N)=C(NC(C)C(C)C)c1ccnc(Br)c1F (stereo not shown) [Compound 1315] here?
The value was 3.87^[a].

Which “Log P” value (pH 2.7) does the source give for CCOC(=O)C(C#N)=C(NC(C)c1cncnc1C(F)(F)F)c1cccnc1Cl (stereo not shown) [Compound 1528] here?
The value was 2.63^[a].

For CCOC(=O)C(C#N)=C(NC1CCS(=O)(=O)C1)c1cn(C)nc1C(F)F (stereo not shown) [Compound 1420], which “Log P” value (pH 2.7) is on record?
Its value is 1.79^[a].

For CCOC(=O)C(C#N)=C(NCC(c1ccccc1)C(C)C)c1cn(C)nc1C(F)F (racemic) [Compound 1239], which “Log P” value (pH 2.7) is on record?
Its value is 3.94^[a].

For CCCC(C)NC(=C(C#N)C(=O)OCC)c1sc(C)nc1C(F)(F)F (stereo not shown) [Compound 868], which “Log P” value (pH 2.7) is on record?
The value was 3.96^[a].

With CCCCCCC(C)NC(=C(C#N)C(=O)OCC)c1sccc1C(F)(F)F (racemic) [Compound 815] as the molecule, how does the “Log P” value (pH 2.7) read?
The value was 5.48^[a].

With CCOC(=O)C(C#N)=C(NC(C)C(C)C)c1sccc1Cl (stereo not shown) [Compound 951] as the molecule, how does the “Log P” value (pH 2.7) read?
Its value is 4.08^[a].

Which “Log P” value (pH 2.7) does the source give for CCOC(=O)C(C#N)=C(NC(C)c1nccs1)c1nc(Cl)ccc1Cl (stereo not shown) [Compound 208] here?
The value was 3.02^[a].

For CCOC(=O)C(C#N)=C(Nc1cc(C(F)(F)F)ccc1SC)c1cn(C)nc1C(F)F [Compound 1426], which “Log P” value (pH 2.7) is on record?
Its value is 3.67^[a].

Which “Log P” value (pH 2.7) does the source give for CCOC(=O)C(C#N)=C(NC(C)C1CCC1)c1cccnc1Cl (stereo not shown) [Compound 1191] here?
The value was 3.55^[a].

With COC(=O)C(C#N)=C(Nc1ccc(N(C)C)cc1)c1sc(C)nc1C(F)(F)F [Compound 486] as the molecule, how does the “Log P” value (pH 2.7) read?
Its value is 3.31^[a].

With CCOC(=O)C(C#N)=C(NC(C)c1nccs1)c1scnc1Cl (stereo not shown) [Compound 1463] as the molecule, how does the “Log P” value (pH 2.7) read?
Its value is 2.59^[a].

With CCOC(=O)C(C#N)=C(NC(C)C1(Cl)CC1)c1cccnc1Cl (stereo not shown) [Compound 1182] as the molecule, how does the “Log P” value (pH 2.7) read?
The value was 3.33^[a].

For CC(C)C(C)NC(=C(C#N)C(=O)N1CCOCC1)c1cccnc1Cl (stereo not shown) [Compound 1518], which “Log P” value (pH 2.7) is on record?
The value was 2.58^[a].
